Assays:
Assay in all cases: Bliss excess, mean over the matrix (fraction); higher = more synergy
[1] = test system: A375 (Melanoma)
In short: (§1)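 Bliss excess equals the observed combination effect minus the expected value EA + EB − EA·EB, where EA and EB are the effects of each agent alone. Combination Emax is the second-highest inhibition within the matrix. Inhibition was scaled from CellTiter-Glo 2.0 luminescence, with 0 set by vehicle wells and 1 by blank wells, after 72 hours of two-drug dosing of cells plated in 1536-well plates.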

[2] = test system: C32 (Melanoma)
In short: as §1

[3] = test system: CAL-85-1 (Breast Carcinoma)
In short: as §1

[4] = test system: COR-L105 (Lung Adenocarcinoma)
In short: as §1

[5] = test system: KNS-62 (Squamous Cell Lung Carcinoma)
In short: as §1

[6] = test system: L-363 (Plasma Cell Myeloma)
In short: as §1

[7] = test system: MDA-MB-175-VII (Breast Carcinoma)
In short: as §1

[8] = test system: MG-63 (Osteosarcoma)
In short: as §1

[9] = test system: NCI-H2023 (Non-Small Cell Lung Carcinoma)
In short: as §1

[10] = test system: NCI-H2452 (Mesothelioma)
In short: as §1

[11] = test system: OCI-M1 (Acute Myeloid Leukemia)
In short: as §1

[12] = test system: SBC-5 (Small Cell Lung Carcinoma)
In short: as §1

[13] = test system: DK-MG (Glioblastoma)
In short: as §1

[14] = test system: NCI-H2170 (Squamous Cell Lung Carcinoma)
In short: as §1

Row | Structure (SMILES) | Bliss excess [1] | Bliss excess [2] | Bliss excess [3] | Bliss excess [4] | Bliss excess [5] | Bliss excess [6] | Bliss excess [7] | Bliss excess [8] | Bliss excess [9] | Bliss excess [10] | Bliss excess [11] | Bliss excess [12] | Bliss excess [13] | Bliss excess [14]
1 | C=CCn1c(=O)c2cnc(Nc3ccc(N4CCN(C)CC4)cc3)nc2n1-c1cccc(C(C)(C)O)n1 [AZD1775] + Nc1ccn([C@@H]2O[C@H](CO)[C@@H](O)C2(F)F)c(=O)n1 [Gemcitabine] (first compound max 1 µM, partner max 0.3 µM) | 0.0519 | -0.0569 | 0.0733 | -0.0263 | 0.0179 | 0.125 | -0.0105 | 0.0581 | 0.0248 | -0.0727 |  |  |  | 
2 | CN(CCO)CC[C@H](CSc1ccccc1)Nc1ccc(S(=O)(=O)NC(=O)c2ccc(N3CCC([C@@H](O)c4ccccc4-c4ccc(Cl)cc4)CC3)cc2)cc1S(=O)(=O)C(F)(F)F [AZD4320] + CS(=O)(=O)CCNCc1ccc(-c2ccc3ncnc(Nc4ccc(OCc5cccc(F)c5)c(Cl)c4)c3c2)o1 [Lapatinib] (first compound max 1 µM, 7x7, partner max 10 µM) | 0.0275 | -0.0269 | 0.0241 | -0.0212 | -0.0185 | 0.0082 | 0.0728 | -0.0176 | 0.0132 | -0.019 |  |  |  | 
3 | Cc1c2c(nn1C)CSCc1cc(n(C)n1)CSc1cc(c3ccccc3c1)OCCCc1c(C(=O)O)n(C)c3c-2c(Cl)ccc13 [AZD5991] + CC(=O)O[C@H]1C(=O)[C@@]2(C)[C@H]([C@H](OC(=O)c3ccccc3)[C@]3(O)C[C@H](OC(=O)[C@H](O)[C@@H](NC(=O)c4ccccc4)c4ccccc4)C(C)=C1C3(C)C)[C@]1(OC(C)=O)CO[C@@H]1C[C@@H]2O [Paclitaxel] (first compound max 1 µM, 7x7, partner max 3 µM) | -0.0149 | 0.0017 | -0.0082 | -0.0367 | -0.0159 | -0.0043 | 0.102 | -0.0715 | 0.0058 | 0.0378 |  |  |  | 
4 | Cc1c2c(nn1C)CSCc1cc(n(C)n1)CSc1cc(c3ccccc3c1)OCCCc1c(C(=O)O)n(C)c3c-2c(Cl)ccc13 [AZD5991] + CS(=O)(=O)CCNCc1ccc(-c2ccc3ncnc(Nc4ccc(OCc5cccc(F)c5)c(Cl)c4)c3c2)o1 [Lapatinib] (first compound max 1 µM, 7x7, partner max 10 µM) | 0.0109 | -0.0014 | -0.0213 | -0.0414 | -0.0155 | 0.0132 | 0.04 | -0.0352 | 0.0021 | -0.0576 |  |  |  | 
5 | Cc1c2c(nn1C)CSCc1cc(n(C)n1)CSc1cc(c3ccccc3c1)OCCCc1c(C(=O)O)n(C)c3c-2c(Cl)ccc13 [AZD5991] + Nc1ccn([C@@H]2O[C@H](CO)[C@@H](O)C2(F)F)c(=O)n1 [Gemcitabine] (first compound max 1 µM, 7x7, partner max 0.3 µM) | 0.0115 | -0.0117 | -0.027 | 0.0042 | -0.009 | 0.0938 | 0.0148 | -0.071 | -0.0707 | -0.0642 |  |  |  | 
6 | C[C@@H]1COCCN1c1cc(C2([S@](C)(=N)=O)CC2)nc(-c2ccnc3[nH]ccc23)n1 [AZD6738] + C1CC(C1)(C(=O)[O-])C(=O)[O-].N.N.[Pt+2] [Carboplatin] (first compound max 10 µM, 7x7, partner max 10 µM) | -0.0113 | -0.0133 | -0.0551 | -0.0272 | -0.0581 | -0.0089 | -0.0024 | -0.0391 | -0.0208 | -0.0212 |  |  |  | 
7 | C[C@@H]1COCCN1c1cc(C2([S@](C)(=N)=O)CC2)nc(-c2ccnc3[nH]ccc23)n1 [AZD6738] + Nc1ccn([C@@H]2O[C@H](CO)[C@@H](O)C2(F)F)c(=O)n1 [Gemcitabine] (first compound max 10 µM, 7x7, partner max 0.3 µM) | 0.0602 | -0.0247 | 0.0227 | 0.003 | 0.0023 | 0.0716 | -0.0368 | 0.17 | 0.0123 | 0.0333 |  |  |  | 
8 | C[C@@H](Nc1cc(F)cc(F)c1)c1cc(C(=O)N(C)C)cc2c(=O)cc(N3CCOCC3)oc12 [AZD8186] + CC(=O)c1c(C)c2cnc(Nc3ccc(N4CCNCC4)cn3)nc2n(C2CCCC2)c1=O [Palbociclib] (first compound max 10 µM, 7x7, partner max 10 µM) | 0.0781 | 0.04 | -0.0529 | 0.0059 | -0.0035 | 0.0624 | -0.0148 | 0.0535 | 0.0108 | -0.0353 |  |  |  | 
9 | C[C@@H](Oc1cc(-c2cnn(C3CCNCC3)c2)cnc1N)c1c(Cl)ccc(F)c1Cl [Crizotinib] + CC1=C(C(=CC=C1)Cl)NC(=O)C2=CN=C(S2)NC3=CC(=NC(=N3)C)N4CCN(CC4)CCO [Dasatinib] (first compound max 10 µM, 7x7, partner max 2 µM) | -0.0256 | -0.0461 | 0.001 | -0.0313 | -0.0258 | 0.004 | -0.0527 | 0.0498 | -0.012 | 0.0069 |  |  |  | 
10 | C[C@@H](Oc1cc(-c2cnn(C3CCNCC3)c2)cnc1N)c1c(Cl)ccc(F)c1Cl [Crizotinib] + Cn1cnc2c(F)c(Nc3ccc(Br)cc3Cl)c(C(=O)NOCCO)cc21 [Selumetinib] (first compound max 10 µM, 7x7, partner max 10 µM) | 0.0035 | 0.0411 | -0.055 | -0.0146 | -0.042 | 0.0316 | 0.0011 | -0.0017 | -0.0007 | -0.0494 |  |  |  | 
11 | CS(=O)(=O)CCNCc1ccc(-c2ccc3ncnc(Nc4ccc(OCc5cccc(F)c5)c(Cl)c4)c3c2)o1 [Lapatinib] + NC1(c2ccc(-c3nc4ccn5c(=O)[nH]nc5c4cc3-c3ccccc3)cc2)CCC1 [MK-2206] (first compound max 10 µM, 7x7, partner max 10 µM) | -0.0031 | 0.0188 | -0.0016 | 0.014 | 0.0408 | 0.026 | 0.0563 | 0.0157 | 0.0246 | -0.0302 | 0.0217 | -0.0051 |  | 
12 | O=C(c1cc(Cc2n[nH]c(=O)c3ccccc23)ccc1F)N1CCN(C(=O)C2CC2)CC1 [Olaparib] + CC1(C)CCC(CN2CCN(c3ccc(C(=O)NS(=O)(=O)c4ccc(NCC5CCOCC5)c([N+](=O)[O-])c4)c(Oc4cnc5[nH]ccc5c4)c3)CC2)=C(c2ccc(Cl)cc2)C1 [Venetoclax] (first compound max 10 µM, 7x7, partner max 1 µM) | -0.0248 | -0.0521 | -0.026 | -0.0328 | -0.0346 | 0.0557 | -0.0483 | 0.0113 | -0.0292 | -0.0646 |  |  |  | 
13 | O=C(c1cc(Cc2n[nH]c(=O)c3ccccc23)ccc1F)N1CCN(C(=O)C2CC2)CC1 [Olaparib] + CN(CC[C@H](CSC1=CC=CC=C1)NC2=C(C=C(C=C2)S(=O)(=O)NC(=O)C3=CC=C(C=C3)N4CCC(CC4)[C@H](C5=CC=CC=C5C6=CC=C(C=C6)Cl)O)S(=O)(=O)C(F)(F)F)CCO [AZD4320] (first compound max 10 µM, 7x7, partner max 1 µM) | -0.0091 | -0.0529 | 0.0221 | -0.049 | -0.0436 | 0.0718 | -0.0001 | -0.0185 | -0.041 | -0.0697 |  |  |  | 
14 | O=C(c1cc(Cc2n[nH]c(=O)c3ccccc23)ccc1F)N1CCN(C(=O)C2CC2)CC1 [Olaparib] + COc1nnc2ccc(N3CCC(c4ccc(OCCN5CCN(C)C(=O)[C@H]5C)cc4)CC3)nn12 [AZD5153] (first compound max 10 µM, 7x7, partner max 1 µM) | -0.0229 | -0.0595 | -0.026 | -0.0689 | -0.0631 | 0.0357 | -0.0024 | -0.0749 | -0.0624 | -0.0361 |  |  |  | 
15 | O=C(c1cc(Cc2n[nH]c(=O)c3ccccc23)ccc1F)N1CCN(C(=O)C2CC2)CC1 [Olaparib] + Cc1c2c(nn1C)CSCc1cc(n(C)n1)CSc1cc(c3ccccc3c1)OCCCc1c(C(=O)O)n(C)c3c-2c(Cl)ccc13 [AZD5991] (first compound max 10 µM, 7x7, partner max 1 µM) | -0.0264 | -0.0585 | -0.0484 | -0.0494 | -0.0396 | 0.0277 | -0.0155 | -0.0465 | -0.0502 | -0.0199 |  |  |  | 
16 | CCc1c2c(nc3ccc(O)cc13)-c1cc3c(c(=O)n1C2)COC(=O)[C@]3(O)CC [SN-38] + O=C(c1cc(Cc2n[nH]c(=O)c3ccccc23)ccc1F)N1CCN(C(=O)C2CC2)CC1 [Olaparib] (first compound max 0.3 µM, 7x7, partner max 10 µM) | 0.0588 | 0.117 | 0.059 | -0.022 | 0.0497 | 0.0309 | 0.0367 | 0.0681 | 0.0986 | 0.0422 |  |  | 0.0193 | 0.0726
17 | Cc1nc(-c2cn3c(n2)-c2ccc(-c4cnn(C(C)(C)C(N)=O)c4)cc2OCC3)n(C(C)C)n1 [Taselisib] + O=C(Nc1ccc2[nH]nc(-c3ccncc3)c2c1)[C@@H]1CCN(CC(=O)N2CCN(c3ccc(-c4ncccn4)cc3)CC2)C1 [SCH772984] (first compound max 10 µM, 7x7, partner max 5 µM) | 0.133 | 0.0706 | 0.0682 | 0.052 | 0.0108 | 0.176 | 0.138 | -0.0764 | -0.0437 | -0.0276 |  |  |  | 
18 | CC1(C)CCC(CN2CCN(c3ccc(C(=O)NS(=O)(=O)c4ccc(NCC5CCOCC5)c([N+](=O)[O-])c4)c(Oc4cnc5[nH]ccc5c4)c3)CC2)=C(c2ccc(Cl)cc2)C1 [Venetoclax] + CS(=O)(=O)CCNCc1ccc(-c2ccc3ncnc(Nc4ccc(OCc5cccc(F)c5)c(Cl)c4)c3c2)o1 [Lapatinib] (first compound max 1 µM, 7x7, partner max 10 µM) | -0.0207 | -0.0443 | -0.044 | -0.0535 | -0.0116 | -0.0033 | 0.0085 | 0.0029 | -0.06 | -0.0546 |  |  |  | 

— the supplement of paper PMC11061612
